# Measurements as given in patent US20210186972A1, “FORMULATIONS AND METHODS FOR THE PREVENTION AND TREATMENT OF TUMOR METASTASIS AND TUMORIGENESIS” (THE UNITED STATES OF AMERICA, AS REPRESENTED BY THE …, priority 2018, published 2021).
# Read-outs that look alike come from different tables or passages of the source.
# Columns and labels:
# [1] = test system: PC3M-GFP-PTB cells; test: PNC prevalence / PNC disassembly in PC3M-GFP-PTB cells; assay type: cell-based, human
# Description: (§1) FIG. 1 is a graph showing the concentration-response curve against PNC prevalence in PC3M (a metastatic prostate cancer cell line)-GFP (green fluorescent protein)-PTB (polypyrimidine tract-binding protein) cells (squares, PC3M, has a PNC prevalence of 75-85% in the absence of treatment) and cytotoxicity as measured by cellular ATP (CELLTITER GLO™) (circles). Representative PTB-GFP images for cells at the indicated concentrations (arrowheads indicate PNCs) (scale bar=5 μm) are shown in the three panels above the graph. The relative signal (%) is along the y-axis and Metarrestin [log M] is along the x-axis.
# A metastatic prostate cancer cell line, PC3M, was developed in order to screen small molecules that effectively disassemble PNCs (see Pettaway, et al., “Selection of highly metastatic variants of different human prostatic carcinomas using orthotopic implantation in nude mice,” Clin. Cancer Res., (2): 1627-36 (1996), incorporated herein in its entirety). PC3M has a […] stably express GFP-PTB (polypyrimidine track binding protein) (FIG. 1, top panels), an essential component of PNCs (see Huang, et al., “The perinucleolar compartment and transcription,” Journal of Cell Biology, (143): 35-47 (1998), incorporated herein in its entirety). Compounds able to reduce PNC prevalence by 50% were filtered in secondary assays to eliminate those that induced apoptosis, DNA damage, generic cytotoxicity, or cell-cycle blockage (see Norton, et al., “Automated high-content screening for compounds that disassemble the perinucleolar compartment,” J Biomol Screen, (14): 1045-53 (2009) and Frankowski, et al., “Discovery and Development of Small Molecules That Reduce PNC Prevalence, in Probe Reports from the NIH Molecular Libraries Program, Bethesda (Md.).(2010), incorporated herein in their entirety). The remaining hits were evaluated for invasion inhibition through MATRIGEL gelatinous protein mixture and anchorage-independent growth inhibition using soft agar assays.
# [2] = test system: PC3M-GFP-PTB cells; test: Cytotoxicity measured by cellular ATP (CELLTITER GLO); assay type: cell-based, human
# Description: as §1
# [3] = test system: PANC1 cells; test: Cell growth, PANC1; assay type: cell-based, human; conditions: 0.6 μM, after 24 hours of treatment
# Description: FIG. 63 is a graph showing the drug response of PANC1 cells following metarrestin treatment. […] Mean cell viability values are plotted with standard error of the mean (SEM) from at least 2 independent experiments done in triplicate.
# [4] = test system: PC3M xenograft mice; test: PC3M xenograft prostate cancer model; assay type: in vivo
# Procedure: Metarrestin was tested in PC3M xenograft mice to determine whether metarrestin's anti-metastasis activity (observed in the NSG PANC1 mice and in vitro pan-cancer PNC suppression) translates into anti-metastasis activity in additional cancer models. Two weeks after subcutaneous implantation of PC3M cells, mice were started on 5 mg/kg or 25 mg/kg metarrestin or vehicle by daily IP injection for 4 additional weeks. Tumor progression was tracked by both in vivo imaging systems (“IVIS”) spectroscopy and tumor volume. Metastasis to the lungs was evaluated ex vivo through IVIS spectroscopy and by histopathology at the experimental endpoint. […] To evaluate the effect of metarrestin on a malignant xenograft considered closest to in vivo conditions, a patient-derived breast cancer xenotransplantation model (PDX) was used. Metastatic breast cancer cells harvested from the pleural fluid of a stage IV ductal breast cancer patient were inoculated into mice, and third generation mouse-passaged tumors were transplanted into the mammary fat pad of NOD.Cg-Prkdc^scid Il2rg^tm1Sug/JicTac mice. Treatment with metarrestin started after the tumors reached 150-200 mm^3. Metarrestin (25 mg/kg) or vehicle was administered daily by IP injection for 4 weeks with a 5-day on and 2-day off schedule. Tumor size and total body weight were measured twice a week, and tumor weight was measured at experimental end-point.
# Prostate cancer model: Mice were implanted in the flank with 3×10^6 human PC-3M-luc-C6 […] tumor cells (Caliper Life Sciences) and split into 4 groups of 10 mice. Dosing with 5 or 25 mg/kg drug or vehicle alone (negative control) was initiated after 2 weeks and continued until the experimental endpoint, 6 weeks after implantation. Primary tumor size (measured with calipers), live tumor cell content (measured by biophotonic imaging), and total body weight were determined each week. At the endpoint, animals were euthanized, metastatic organs removed, and metastases quantitated by biophotonic imaging of the organs.
# [5] = test system: patient-derived breast cancer xenotransplantation model (PDX); test: Patient-derived breast cancer xenotransplantation model (PDX); assay type: in vivo; conditions: 25 mg/kg IP, 5-day on and 2-day off, 4 weeks
# Procedure: Metarrestin was tested in PC3M xenograft mice to determine whether metarrestin's anti-metastasis activity (observed in the NSG PANC1 mice and in vitro pan-cancer PNC suppression) translates into anti-metastasis activity in additional cancer models. Two weeks after subcutaneous implantation of PC3M cells, mice were started on 5 mg/kg or 25 mg/kg metarrestin or vehicle by daily IP injection for 4 additional weeks. Tumor progression was tracked by both in vivo imaging systems (“IVIS”) spectroscopy and tumor volume. Metastasis to the lungs was evaluated ex vivo through IVIS spectroscopy and by histopathology at the experimental endpoint. […] To evaluate the effect of metarrestin on a malignant xenograft considered closest to in vivo conditions, a patient-derived breast cancer xenotransplantation model (PDX) was used. […] Tumor size and total body weight were measured twice a week, and tumor weight was measured at experimental end-point.
# Breast cancer model: The model derived from 0.2 liter of pleural effusion from a breast cancer patient (model #373342). These cancer cells had metastasized to the lung pleura from the initial tumor detected in the breast. […] Tumor size and total body weight were measured twice a week.
# [6] = test system: PANC1, PC3M, and HeLa; test: DNA damage response, cell cycle and apoptosis; assay type: cell-based
# Procedure: Genotoxic agents that intercalate into or alkylate DNA, such as actinomycin D, induce similar nucleolar segregation to that observed with metarrestin treatment. To determine whether metarrestin induces nucleolar changes through genotoxic effects or general cytotoxicity, the impact of metarrestin on DNA damage repair, cell cycle, and general Pol II transcription status in three cell lines, PANC1, PC3M, and HeLa, was evaluated. […]
# [7] = test system: eEF1A; test: Western blot of total eEF1A; assay type: cell-based; conditions: 1 μM, 24 hours
smiles,measurement,setting,value
N=c1c2c(-c3ccccc3)c(-c3ccccc3)n(Cc3ccccc3)c2ncn1[C@H]1CC[C@H](O)CC1 [metarrestin],PNC disassembly and nucleolar distortion,[1]; 1 μM,~100%
same,IC90,"[1]; Homo sapiens, FIG. 1",750 nM
same,IC50,"[1]; Homo sapiens, P3CM cells, read-out: PNC disassembling IC50",390 nM
same,IC50,"[1]; Homo sapiens, PC3M-GFP-PTB cells, read-out: IC50 for disruption of PNCs",390 nM
same,IC100,"[1]; PC3M cells, 24 hours",1 µM
same,Acute cytotoxicity (cellular ATP),[2],without acute cytotoxicity
same,PANC1 cell growth,[3],did not affect PC3M or PANC1 cell growth
same,Growth of primary tumor xenografts,[4]; 25 mg/kg daily IP for 4 weeks,modestly reduced growth
same,Lung metastasis,"[4]; 25 mg/kg daily IP for 4 weeks, P<0.05 vs vehicle",decreased development of lung metastasis
same,Body weight and behavior,[4]; daily IP for 4 weeks,not significantly different
same,PDX growth,[5],effectively inhibited the PDX growth
same,Tolerability (body weight and behavior),[5],well-tolerated
same,"Apoptotic index, cells undergoing apoptosis",[6],less than 1%
same,DNA damage response signature factors,"[6]; 1 μM, 24 hours","neither phosphorylated yH2AX or p53BP1, nor phosphorylated p53"
same,"Cell cycle pattern (DNA content, flow cytometry)",[6]; two different concentrations within 24 hours,did not show a significant alteration of cell cycle pattern
same,Total eEF1A protein,[7],remained similar
